In US6511993B1, “Metalloprotease inhibitors” (priority 1999, dated 2003) one finds melting point data, which are given here for 8 compounds.

In the case of `COc1cccc(-c2ccc(C3CCN(S(=O)(=O)C4(C(=O)NO)CC(O)C(O)C4)CC3)cc2C)c1` (stereo not drawn) [Example 24, (1α,3α,4α)-N,3,4-trihydroxy-1-{4-[4-(3-methoxyphenyl)-3-methylphenyl]piperidin-1-ylsulfonyl}cyclopentanecarboxamide], the melting point (as a rule, the temperature of the solid-liquid transition) lay within 201 to 202 °C.

As to `CNCc1cccc(-c2ccc(C3CCN(S(=O)(=O)C4(C(=O)NO)CCOCC4)CC3)cc2C)c1.Cl`, the melting point was in the range of 213 to 214 °C.

In the case of `CCOc1cccc(-c2ccc(C3CCN(S(=O)(=O)C4(C(=O)NO)CC(O)C(O)C4)CC3)cc2C)n1` (stereo not drawn) [Example 22, (1α,3α,4α)-1-({4-[4-(6-ethoxypyridin-2-yl)-3-methylphenyl]piperidin-1-yl}sulfonyl)-N,3,4-trihydroxycyclopentanecarboxamide], the melting point was in the range of 204 to 205 °C.

`COc1cccc(-c2ccc(C3CCN(S(=O)(=O)C4(C(=O)NO)CC(O)C(O)C4)CC3)cc2C)c1` (stereo not drawn) [Example 25, (1α,3β,4β)-N,3,4-trihydroxy-1-{4-[4-(3-methoxyphenyl)-3-methylphenyl]piperidin-1-ylsulfonyl}cyclopentanecarboxamide] returned a melting point of 188 to 189 °C.

Compound `Cc1cc(C2CCN(S(=O)(=O)C3(C(=O)NO)CCOCC3)CC2)ccc1-c1cccc(CN2CCOCC2)c1` [Example 17, N-Hydroxy 4-{[4-(3-methyl-4-{3-[4-morpholinylmethyl]}phenyl)piperidin-1-yl]sulphonyl}tetrahydro-2H-pyran-4-carboxamide] registered a melting point of 177 to 179 °C.

Compound `Cc1cc(C2CCN(S(=O)(=O)C3(C(=O)NO)CC(O)C(O)C3)CC2)ccc1-c1cccc(OCCO)n1` (stereo not drawn) [Example 21, (1α,3α,4α)-N,3,4-trihydroxy-1-[(4-{4-[6-(2-hydroxyethoxy)pyridin-2-yl]-3-methylphenyl}piperidin-1-yl)sulfonyl]cyclopentanecarboxamide] yielded a melting point of 215 to 218 °C.

Take `Cc1cc(C2CCN(S(=O)(=O)C(C)(C)C(=O)NO)CC2)ccc1-c1cccc(OC[C@@H](O)CO)c1` [Example 8, N-Hydroxy 2-[4-(4-{3-[(2S)-2,3-dihydroxy-1-propoxy]phenyl}-3-methylphenyl)-piperidin-1-ylsulphonyl]-2-methylpropanamide]: the melting point lay in the range of 152 to 154 °C.

Compound `CCOc1cccc(-c2ccc(C3CCN(S(=O)(=O)C4(C(=O)NO)CC(O)C(O)C4)CC3)cc2C)n1` (stereo not drawn) [Example 23, (1α,3β,4β)-1-({4-[4-(6-ethoxypyridin-2-yl)-3-methylphenyl]piperidin-1-yl}sulfonyl)-N, 3,4-trihydroxycyclopentanecarboxamide] gave a melting point of 196 to 197 °C.
